Assay results published in PubChem BioAssay (NCI).
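Results reflect a 48-hour exposure of cells in 96-well plates to compound at five concentrations. GI50 is the concentration that inhibits growth by half. TGI is the concentration that stops growth completely.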

Experiments:
Test in all cases: DTP human tumour cell line panel, 48 h
[1] = test system: UACC-257 melanoma
[2] = test system: IGROV1 ovarian
[3] = test system: SF-539 CNS
[4] = test system: HOP-62 NSCLC
[5] = test system: RPMI-8226 leukemia
[6] = test system: NCI-H460 lung
[7] = test system: HL-60(TB) leukemia
[8] = test system: OVCAR-8 ovarian
[9] = test system: UO-31 renal
[10] = test system: SNB-19 CNS

Structure (SMILES)	TGI [1] [µM]	TGI [2] [µM]	TGI [3] [µM]	TGI [4] [µM]	TGI [5] [µM]	TGI [6] [µM]	TGI [7] [µM]	TGI [8] [µM]	GI50 [1] [µM]	GI50 [2] [nM]	GI50 [3] [nM]	GI50 [4] [µM]	GI50 [5] [nM]	GI50 [6] [µM]	GI50 [7] [µM]	GI50 [8] [µM]	GI50 [9] [nM]	TGI [9] [µM]	GI50 [10] [µM]	TGI [10] [µM]
Cc1ccc(C=NC23CC4CC(CC(C4)C2)C3)cc1	> 100	> 100	> 100	> 100	> 100	> 100	> 100	> 100	–	–	–	–	–	–	–	–	–	–	–	–
NCCCN1CCN(CCCNc2nc3ccccc3c3[nH]c4ccccc4c23)CC1	5.72	4.38	1.5	1.08	0.817	1.42	3.26	3.88	2.51	638	438	0.26	241	0.32	0.425	0.131	771	11.8	0.34	2.07
COC(=O)[C@]12CC[C@@H](C)[C@H](C)[C@@H]1C1=CC[C@@H]3[C@@]4(C)C(C=O)=C[C@@](C)(COS(C)(=O)=O)C4[C@H](O)C[C@@]3(C)[C@]1(C)CC2 (stereo partly specified)	3.65	7.36	3.71	4.45	1.99	4.93	4.24	5.71	1.85	2580	1830	2.23	342	2.15	1.17	2.08	1040	2.35	2.47	8.44
CCOc1nccc2c1nc(-c1nonc1N)n2CC	> 25	> 25	> 25	> 25	> 25	> 25	> 25	> 25	> 25	> 25000	> 25000	> 25	> 25000	> 25	> 25	> 25	> 18400	> 25	> 25	> 25
Cc1cc(N(CCCNc2ccnc3cc(Cl)ccc23)Cc2ccc3c(c2)OCO3)nc(N2CCCCC2)n1	4.22	3.87	3.36	5.17	4.93	–	–	4.95	2.2	1580	1820	1.74	1910	–	–	2.1	1250	2.82	3.47	15.1
COc1ccc(-c2cc(-c3cccc(NS(C)(=O)=O)c3)nc(N)c2C#N)cc1	–	> 34.8	0.491	34.6	8.23	10.8	1.26	34.6	–	119	47.8	0.0689	286	0.0871	0.0637	0.222	124	> 43.7	0.158	> 84
O=C1C(=O)N(c2nccs2)C(=O)C(=O)C1c1nc2ccccc2s1	> 100	> 100	> 100	> 100	> 100	> 100	–	> 100	–	–	–	–	–	–	–	–	–	> 100	–	> 100
CC(NC(=O)C(=O)N/N=C1\C[C@@H](c2ccccc2)Nc2ccccc21)c1ccccc1 (stereo partly specified)	> 100	–	> 100	> 100	–	> 100	> 100	> 100	–	–	–	–	–	–	–	–	–	> 100	–	> 100
N#C/C(=C\c1c(-c2ccccc2)[nH]c2ccccc12)C(=O)c1ccccc1	> 100	24.2	43.9	> 100	7.98	> 100	–	> 100	10.9	2530	6030	16.3	2430	4.52	–	21.7	30500	> 100	16.8	> 100
COc1nc2c(nc(N)n2C2OCC(O)C(O)C2O)c(=O)n1C (stereo unspecified)	> 100	> 100	> 100	> 100	–	> 100	> 100	> 100	–	–	–	–	–	–	–	–	–	> 100	–	> 100
COc1cc2c3c(n(CCCBr)c(=O)c2cc1OC)-c1ccc(F)cc1C3=O	> 100	–	15.2	25	38.1	47.2	> 100	> 100	76.4	–	3540	4.21	12600	2.38	24.8	26.4	5570	60.4	6.34	> 100
CCOC(=O)c1ccc(N2C(=O)Cc3ccccc3C2=O)cc1	> 100	> 100	> 100	–	> 100	–	–	> 100	–	–	–	–	–	–	–	–	–	> 100	–	> 100
C=C(CNC(=O)c1ccccc1)c1ccc(C(=O)Nc2ccccc2N)cc1	23.6	> 100	> 100	> 100	–	> 100	–	> 100	3.62	19500	1380	63.7	–	8.02	–	5.61	2780	> 100	80.2	> 100
Nc1c(C(=O)N/N=C/c2ccc(-c3cc(Cl)c(Cl)cc3Cl)o2)cnn1-c1ccnc2c(C(F)(F)F)cccc12	–	> 100	38.7	> 100	> 100	16.9	> 100	–	–	4530	5480	5.24	3250	3.73	3.18	–	3490	> 100	4.17	> 100
N#Cc1nc2c(S(=O)(=O)c3ccccc3)c(N)n(Cc3ccc(Cl)cc3)c2nc1C#N	> 50	42.3	> 50	> 50	> 50	> 50	> 50	47.6	33.1	9650	19400	> 50	14100	10.9	47.3	8.51	–	–	13.8	41
